In patent US7834023B2 (Portola Pharmaceuticals, Inc., priority 2006, dated 2010):
pIC50: −log10 of the molar value.

Target: T1, P2Y12 receptor (Homo sapiens, UniProt Q9H244)
T1 construct: endogenous in cells; host or cells: human platelets (outdated from blood banks or fresh), apyrase-washed, whole
Assay: platelet ADP receptor binding assay (ARB): inhibition of [3H]2-MeS-ADP binding to platelets
Settings: [3H]2-MeS-ADP binding to apyrase-washed human platelets
Method: 1. The Ability of Candidate Molecules to Inhibit the Binding of [^3H]2-MeS-ADP to the […] Receptor on Platelets was Determined Using a Radioligand Binding Assay.
Utilizing this assay the potency of inhibition of such compounds with respect to [^3H]2-MeS-ADP binding to whole platelets is determined. Under the conditions described in II (3) below, the binding of [^3H]2-MeS-ADP is solely due to the interaction of this ligand with the P2Y12 receptor, in that all the specific binding measured in this assay is competable with a P2Y12 antagonist (i.e., the specific binding is reduced to background levels by competition with an excess of P2Y12 antagonist, with no competition of binding when a P2Y1 antagonist is pre-incubated with the platelet preparation). [^3H]2-MeS-ADP binding experiments are routinely performed with outdated human platelets collected by standard procedures at hospital blood banks. Apyrase-washed outdated platelets are prepared as follows (all steps at room temperature, if not indicated otherwise):
Outdated platelet suspensions are diluted with 1 volume of CGS and platelets pelleted by centrifugation at 1900×g for 45 minutes. Platelet pellets are resuspended at 3-6×10^9 platelets/ml in CGS containing 1 U/ml apyrase (grade V, Sigma, St. Louis, Mo.) and incubated for 15 minutes at 37° C. After centrifugation at 730×g for 20 minutes, pellets are resuspended in Hepes-Tyrode's buffer containing 0.1% BSA (Sigma, St. Louis, Mo.) at a concentration of 6.66×10^8 platelets/ml. Binding experiments are performed after >45 minutes resting of the platelets.
Alternatively, binding experiments are performed with fresh human platelets prepared as described in section I (Inhibition of ADP-Mediated Platelet Aggregation in vitro), except that platelets are resuspended in Hepes-Tyrode's buffer containing 0.1% BSA (Sigma, St. Louis, Mo.) at a concentration of 6.66×10^8 platelets/mil. Very similar results are obtained with fresh and outdated platelets.
A platelet ADP receptor binding assay (ARB) using the tritiated potent agonist ligand [^3H]2-MeS-ADP (Jantzen, H. M. et al. (1999) Thromb. Hemost. 81:111-117) has been adapted to the 96-well microtiter format. In an assay volume of 0.2 ml Hepes-Tyrode's buffer with 0.1% BSA and 0.6% DMSO, 1×10^8 apyrase-washed platelets are preincubated in 96-well flat bottom microtiter plates for 5 minutes with serial dilutions of test compounds before addition of 1 nM [^3H]2-MeS-ADP ([^3H]2-methylthioadenosine-5′-diphosphate, ammonium salt; specific activity 20-50 Ci/mmole, obtained by custom synthesis from Amersham Life Science, Inc., Arlington Heights, Ill., or NEN Life Science Products, Boston, Mass.). Total binding is determined in the absence of test compounds. Samples for nonspecific binding may contain 10 μM unlabelled 2-MeS-ADP (RBI, Natick, Mass.). After incubation for 15 minutes at room temperature, unbound radioligand is separated by rapid filtration and two washes with cold (4-8° C.) Binding Wash Buffer (10 mM Hepes pH 7.4, 138 mM NaCl) using a 96-well cell harvester (Minidisc 96, Skatron Instruments, Sterling, Va.) and 8×12 GF/C glassfiber filtermats (Printed Filtermat A, for 1450 Microbeta, Wallac Inc., Gaithersburg, Md.). The platelet-bound radioactivity on the filtermats is determined in a scintillation counter (Microbeta 1450, Wallac Inc., Gaithersburg, Md.). Specific binding is determined by subtraction of non-specific binding from total binding, and specific binding in the presence of test compounds is expressed as % of specific binding in the absence of test compound dilutions. IC50s were derived by non-linear regression analysis.

T1 sequence (Q9H244 whole entry): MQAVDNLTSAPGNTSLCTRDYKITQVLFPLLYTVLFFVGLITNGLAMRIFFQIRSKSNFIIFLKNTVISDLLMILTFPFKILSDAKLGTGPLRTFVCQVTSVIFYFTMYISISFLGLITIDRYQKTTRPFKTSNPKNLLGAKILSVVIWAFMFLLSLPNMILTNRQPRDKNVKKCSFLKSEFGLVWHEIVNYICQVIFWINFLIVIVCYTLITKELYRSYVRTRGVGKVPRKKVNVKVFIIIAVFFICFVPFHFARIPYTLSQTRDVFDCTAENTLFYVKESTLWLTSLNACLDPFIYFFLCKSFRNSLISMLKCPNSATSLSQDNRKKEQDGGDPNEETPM

Row | SMILES | pIC50
1 | CNc1cc2[nH]c(=O)n(-c3ccc(NC(=O)NC(C(=O)O)c4ccc(Cl)s4)cc3)c(=O)c2cc1F (stereo not drawn) [Compound 110, 2-(5-chlorothiophen-2-yl)-2-(3-(4-(6-fluoro-7-(methylamino)-2,4-dioxo-1,2-dihydroquinazolin-3(4H)-yl)phenyl)ureido)acetic acid] | < 6.30
2 | O=C(NC(C(=O)O)c1ccc(Cl)s1)c1ccc(-n2ccc3ccccc3c2=O)cc1 (stereo not drawn) [Compound 96, 2-(5-chlorothiophen-2-yl)-2-(4-(1-oxoisoquinolin-2(1H)-yl)benzamido)acetic acid] | < 6.30
3 | O=C(NCc1nnn[nH]1)c1ccc(-n2c(=O)[nH]c3cc(NCc4ccc(F)cc4)ccc3c2=O)cc1 [Compound 10, N-((1H-tetrazol-5-yl)methyl)-4-(7-(4-fluorobenzylamino)-2,4-dioxo-1,2-dihydroquinazolin-3(4H)-yl)benzamide] | < 6.30
4 | N#Cc1cn(-c2ccc(C(=O)NC(C(=O)O)c3ccc(Cl)s3)cc2)c(=O)c2ccccc12 (stereo not drawn) [Compound 100, 2-(5-chlorothiophen-2-yl)-2-(4-(4-cyano-1-oxoisoquinolin-2(1H)-yl)benzamido)acetic acid] | < 6.30
5 | CNc1cc2[nH]c(=O)n(-c3ccc(C(=O)NCc4ccc(Cl)s4)cc3)c(=O)c2cc1F [Compound 4, N-((5-chlorothiophen-2-yl)methyl)-4-(6-fluoro-7-(methylamino)-2,4-dioxo-1,2-dihydroquinazolin-3(4H)-yl)benzamide] | 6.30 to 7.30
6 | CNc1cc2[nH]c(=O)n(-c3ccc(C(=O)NC(c4cccc(OC(F)(F)F)c4)c4nnn[nH]4)cc3)c(=O)c2cc1F (stereo not drawn) [Compound 31] | < 6.30
7 | NC(=O)c1cn(-c2ccc(C(=O)NC(C(=O)O)c3ccc(Cl)s3)cc2)c(=O)c2ccccc12 (stereo not drawn) [Compound 99] | < 6.30
8 | CNc1cc2[nH]c(=O)n(-c3ccc(CN(CC(=O)O)C(=O)c4ccc(Cl)s4)cc3)c(=O)c2cc1F [Compound 103, 2-(5-chloro-N-(4-(6-fluoro-7-(methylamino)-2,4-dioxo-1,2-dihydroquinazolin-3(4H)-yl)benzyl)thiophene-2-carboxamido)acetic acid] | < 6.30
9 | O=C(NC(C(=O)O)c1cccs1)c1ccc(-n2c(=O)[nH]c3ccccc3c2=O)cc1 (stereo not drawn) [Compound 39] | < 6.30
10 | COc1ccc2c(=O)n(-c3ccc(C(=O)NC(C(=O)O)c4ccc(Cl)s4)cc3)ccc2c1 (stereo not drawn) [Compound 101, 2-(5-chlorothiophen-2-yl)-2-(4-(6-methoxy-1-oxoisoquinolin-2(1H)-yl)benzamido)acetic acid] | < 6.30
11 | CNc1cc2[nH]c(=O)n(-c3ccc(C(=O)NC(C(=O)OC)c4ccc(Cl)s4)cc3)c(=O)c2cc1F (stereo not drawn) [Compound 18] | < 6.30
12 | CNc1cc2c(cc1F)C(=O)N(c1ccc(C(=O)NC(c3ccc(Cl)s3)c3nc(C)cs3)cc1)CO2 (stereo not drawn) [Compound 85, N-((5-chlorothiophen-2-yl)(4-methylthiazol-2-yl)methyl)-4-(6-fluoro-7-(methylamino)-4-oxo-2H-benzo[e][1,3]oxazin-3(4H)-yl)benzamide] | 6.30 to 7.30
13 | CNc1cc2[nH]c(=O)n(-c3ccc(C(=O)NC(CO)c4ccc(Cl)s4)cc3)c(=O)c2cc1F (stereo not drawn) [Compound 36] | 6.30 to 7.30
14 | CNc1cc2[nH]c(=O)n(-c3ccc(C(=O)NC(C(=O)O)c4ccc(Cl)s4)s3)c(=O)c2cc1F (stereo not drawn) [Compound 112, 2-(5-chlorothiophen-2-yl)-2-(5-(6-fluoro-7-(methylamino)-2,4-dioxo-1,2-dihydroquinazolin-3(4H)-yl)thiophene-2-carboxamido)acetic acid] | 6.30 to 7.30
15 | N#Cc1ccc2c(=O)n(-c3ccc(C(=O)NC(C(=O)O)c4cccs4)cc3)ccc2c1 (stereo not drawn) [Compound 95] | < 6.30
16 | O=C(NC(C(=O)O)c1ccc(Cl)s1)c1ccc(-n2c(=O)[nH]c3ccc(I)cc3c2=O)cc1 (stereo not drawn) [Compound 37, 2-(5-chlorothiophen-2-yl)-2-(4-(6-iodo-2,4-dioxo-1,2-dihydroquinazolin-3(4H)-yl)benzamido)acetic acid] | 6.30 to 7.30
17 | CNc1cc2c(cc1F)C(=O)N(c1ccc(C(=O)NC(C(=O)O)c3cccs3)cc1)CO2 (stereo not drawn) [Compound 63, 2-(4-(6-fluoro-7-(methylamino)-4-oxo-2H-benzo[e][1,3]oxazin-3(4H)-yl)benzamido)-2-(thiophen-2-yl)acetic acid] | < 6.30
18 | CNc1cc2[nH]c(=O)n(-c3ccc(CNC(CC(=O)O)c4ccc(Cl)s4)cc3)c(=O)c2cc1F (stereo not drawn) [Compound 104, 3-(5-chlorothiophen-2-yl)-3-(4-(6-fluoro-7-(methylamino)-2,4-dioxo-1,2-dihydroquinazolin-3(4H)-yl)benzylamino)propanoic acid] | 6.30 to 7.30
19 | CNc1cc2c(cc1F)C(=O)N(c1ccc(C(=O)NC(C(=O)O)c3ccccc3)cc1)CO2 (stereo not drawn) [Compound 58, 2-(4-(6-fluoro-7-(methylamino)-4-oxo-2H-benzo[e][1,3]oxazin-3(4H)-yl)benzamido)-2-phenylacetic acid] | 6.30 to 7.30
20 | CNc1cc2[nH]c(=O)n(-c3ccc(C(=O)NC(c4nsc(=O)[nH]4)c4ccc(Cl)s4)cc3)c(=O)c2cc1F (stereo not drawn) [Compound 25, N-((5-chlorothiophen-2-yl)(5-oxo-4,5-dihydro-1,2,4-thiadiazol-3-yl)methyl)-4-(6-fluoro-7-(methylamino)-2,4-dioxo-1,2-dihydroquinazolin-3(4H)-yl)benzamide] | 6.30 to 7.30
21 | CNc1cc2c(cc1F)C(=O)N(c1ccc(CC(=O)NC(C(=O)N3CCCC3)c3ccc(Cl)s3)cc1)CO2 (stereo not drawn) [Compound 121, N-(1-(5-chlorothiophen-2-yl)-2-oxo-2-(pyrrolidin-1-yl)ethyl)-2-(4-(6-fluoro-7-(methylamino)-4-oxo-2H-benzo[e][1,3]oxazin-3(4H)-yl)phenyl)acetamide] | < 6.30
22 | O=C(NC(C(=O)O)c1ccc(Cl)s1)c1ccc(N2COc3cc(NCc4ccc(F)cc4)ccc3C2=O)cc1 (stereo not drawn) [Compound 84, 2-(5-chlorothiophen-2-yl)-2-(4-(7-(4-fluorobenzylamino)-4-oxo-2H-benzo[e][1,3]oxazin-3(4H)-yl)benzamido)acetic acid] | < 6.30
23 | CNc1cc2c(cc1F)C(=O)N(c1ccc(C(=O)NC(Cc3ccc(Cl)s3)C(=O)O)cc1)CO2 (stereo not drawn) [Compound 57, 3-(5-chlorothiophen-2-yl)-2-(4-(6-fluoro-7-(methylamino)-4-oxo-2H-benzo[e][1,3]oxazin-3(4H)-yl)benzamido)propanoic acid] | 6.30 to 7.30
24 | N#Cc1ccc2c(=O)n(-c3ccc(C(=O)NC(C(=O)O)c4ccc(Cl)s4)cc3)ccc2c1 (stereo not drawn) [Compound 98, 2-(5-chlorothiophen-2-yl)-2-(4-(6-cyano-1-oxoisoquinolin-2(1H)-yl)benzamido) acetic acid] | < 6.30
25 | CNc1cc2[nH]c(=O)n(-c3ccc(C(=O)NC(c4ccc(Cl)c(Cl)c4)c4nnn[nH]4)cc3)c(=O)c2cc1F (stereo not drawn) [Compound 29, N-((3,4-dichlorophenyl)(1H-tetrazol-5-yl)methyl)-4-(6-fluoro-7-(methylamino)-2,4-dioxo-1,2-dihydroquinazolin-3(4H)-yl)benzamide] | < 6.30
26 | CNc1cc2[nH]c(=O)n(-c3ccc(C(=O)NC(C(=O)O)c4ccc(Cl)s4)c(Cl)c3)c(=O)c2cc1F (stereo not drawn) [Compound 43, 2-(2-chloro-4-(6-fluoro-7-(methylamino)-2,4-dioxo-1,2-dihydroquinazolin-3(4H)-yl)benzamido)-2-(5-chlorothiophen-2-yl)acetic acid] | 6.30 to 7.30
27 | CNc1cc2c(cc1F)C(=O)N(c1ccc(CC(=O)NC(C(=O)O)c3ccc(Cl)s3)cc1)CO2 (stereo not drawn) [Compound 114, 2-(5-chlorothiophen-2-yl)-2-(2-(4-(6-fluoro-7-(methylamino)-4-oxo-2H-benzo[e][1,3]oxazin-3(4H)-yl)phenyl)acetamido)acetic acid] | < 6.30
